Test results published in US20030065039A1, “Biologically active 1,3-bis-aromatic-prop-2-en-1-ones, 1,3-bis-aromatic-propan-1-ones, and 1,3-bis-aromatic-prop-2-yn-1-ones” (Statens Serum Institute, priority 1997, published 2003).
Converted amounts (≈) assume the structure as drawn. Like-named read-outs stand apart in the source and are kept apart here. One block for each molecule: values may come before it.

Key:
Leishmania promastigotes = Leishmania promastigotes Assay; type: cell-based; settings: promastigotes, 3H-thymidine uptake, read-out: Leishmania IC50 ± SD
Protocol: A WHO reference vaccine strain of L. major originally isolated from a patient in Iran and a Kenyan strain of L. donovani (MHOM(/KE/85/NLB 274) were cultured in medium 199 containing 0.02 mg/ml gentamycin, 25 mM Hepes, 4 mM L-glutamine, and 20% heat inactivated fetal calf serum (FCS). Incubation was carried out at 26° C. Promastigotes were harvested on day 3 and 6 of the culture and used for the parasite growth inhibition.
The effect of the test compounds on promastigotes was assessed by a method similar to the one described by Pearson et al., by incubating promastigotes (3×10^6/ml) at 26° C. for 2 hrs in the presence of a given compound or the medium alone in 96 wells flat bottom microtiter plates. Following incubation, 100 μCi of 3H-thymidine was added to each well and further incubated for 18 hrs. Promastigotes were then harvested on filter paper by means of a cell harvester, extensively washed with distilled water and counted in a scintillation counter. The promastigotes were also counted microscopically and their flagellar motility was assessed.

human lymphocytes = assay: Lymphocyte Proliferation Assay; type: cell-based; settings: PHA provoked proliferation of human lymphocytes, read-out: Lymphocytes IC50 ± SD
Protocol: Human blood mononuclear cells (BMNC) from heparinized blood were isolated by metrizoate sodium-Ficoll density gradient centrifugation, washed 3 times in RPMI 1640 medium supplemented with 5% FCS and with 400 IU of penicillin plus 400 μg/ml streptomycin. BMNC were resuspended in the medium and cultured in triplicate, 0.63×10^5/ml and 160 μl per vial, in round-bottom microtiter plates with 20 μl of various concentrations of the test compound. Immediately prior to incubation, optimum concentrations of the mitogen phytohaemagglutinin (PHA) and the antigen purified protein derivative of tuberculin (PPD) were added to the cultures in a volume of 20 μl. Unstimulated control cultures were always included. Cultures were incubated for 3 or 7 days. The degree of lymphocyte proliferation was estimated by ^3H-thymidine (1 μCi per well) addition 24 h before the cells were harvested on glass fiber filters by means of a harvesting machine), and ^3H-thymidine incorporation was measured in a liquid scintillation counter. For each set of triplicate values, the median was recorded. Unstimulated cultures were always included as controls.

Plasmodium falciparum = Plasmodium falciparum Assay; type: cell-based; settings: 3-H-hypoxanthine incorporation, 48 hours, read-out: Plasmodium IC50 ± SD
Protocol: The experiments in which compounds were tested for their ability to inhibit parasite growth were performed by a modification of the method originally described by Jensen et al. (1982). 50 μl of parasitized erythrocytes (parasitemia approximately 1%) in a concentration of 5×10^8/ml and 50 μl of RPMI medium containing different concentrations of the test compound was added to each well of a 96 well flat-bottomed microtiter plate. The cultures were then incubated for 48 hours, 24 hours before termination of the culture adding 20 μl of 3-H-hypoxanthine (40 uCi/ml) was added to each well. The cultures were then harvested onto glass fiber filters using a Skatron cell harvester, and the incorporation of 3-H-hypoxanthine into the DNA of dividing parasites was determined by liquid scintillation spectrometry. Control cultures with uninfected erythrocytes and infected erythrocytes in RPMI medium without test compounds were always performed in parallel to the test cultures. In some experiments thin smears of parasite cultures were stained by Giemsa and examined under microscope (×1000). The test compounds described above, were diluted in RPMI medium immediately before use. In the experiments, chloroquine phosphate was used as a positive control as a drug known to inhibit parasite growth.

Helicobacter pylori = assay: Helicobacter species Assay (agar plate, MIC); type: cell-based; settings: for MIC: Helicobacter pylori, 20 strains of H. pylori, agar plate, 72 hours, read-out: MIC; for No. strains inhibited/No. strains tested: at the MIC of the same line
Protocol: (§1) 20 strains of Helicobacter pylori were used in an agar plate assay. The compounds were incorporated in the agar plates at different concentrations as described in the examples and were then inoculated with different strains of Helicobacter pylori followed by incubation in a microaerophilic atmosphere at 37° C. for 72 hours. The number of colony-forming units (CFU) were counted after the incubation period. The MIC values were determined as the minimal concentration required to inhibit growth of the bacteria.
(§2) Stock solutions were made at a concentration of 1 mg/ml by dissolving 1 mg of each compound in 100 μl DMSO (dimethylsulfoxide) followed by addition of 900 μl of heat-inactivated fetal claf serum (HFCS). These stock solutions were diluted with HFCS to make solutions having the following concentrations: 320 μg/ml, 160 μg/ml, 80 μg/ml, 40 μg/ml and 20 μg/ml. Dilution rows were made with 3 ml aliquots in vials containing the compounds in the following final test concentrations: 16 μg/ml, 8 μg/ml, 4 μg/ml, 2 μg/ml and 1 μg/ml. As control was used DMSO-HFCS containing an amount of DMSO equal to the amount of test compound in the solution with 320 μg/ml compound.
as §1, with “Bacteria: 20” for “20”, “concentrations” for “concentrations as described in the examples”, “and then they” for “and”, “were” for “were then”, “incubation at” for “incubation in a”, “C. in” for “C. for”
as §2, with “concentrations: 2560 μg/ml, 1280 μg/ml, 640 μg/ml,” for “concentrations:”, “160 µg/ml and” for “160 μg/ml,”, “80” for “80 μg/ml, 40 μg/ml and 20”, “concentrations: 128 μg/ml, 64 μg/ml, 32 μg/ml, 12” for “concentrations: 16”, “8” for “8 μg/ml, 4 μg/ml, 2”, “and 4” for “and 1”
Bacteria: 20 strains of Helicobacter pylori were used in an agar plate assay. The same method as described above under Experiment A was employed and MIC values were determined.

TNF-α = TNF-α production by human peripheral blood mononuclear cells, culture supernatant (ELISA); type: cell-based
Protocol: Cells: Peripheral blood mononuclear cells obtained from healthy individuals. The cells were separated by a conventional method lymphoprep) and suspended in RMPI 1640 containing 5% human serum.
Stimulation of cytokine-release from human mononuclear cells: Human peripheral blood mononuclear cells from Danish donors were suspended in 1-10% (v/v) human serum in RPMI 1640 and adjusted to 2×10^6 cells per ml. 0.1 ml volumes were then dispensed into wells of 96-well microtiter plates. […] In some experiments cells were preincubated with drugs for 2 hrs before addition of stimulation antigens. The cultures were incubated overnight for TNF-α and IL-6 assays.
Supernatants were collected and assayed for TNF-α, IL-1α and IL-6 by ELISA procedures (Jakobsen et al., 1993, Fomsgaard et al., 1988, Hansen et al., 1991) with the following modifications. ELISA Maxisorp plates (Nunc, Roskilde, Denmark) were coated for 24 hrs at 4 C with 100 μl per well of 2.5 μg/ml rabbit polyclonal IgG to human recombinant TNF, IL-1α or IL-6 in 100 mM sodiumhydrogencarbonate. Non-attached sites were blocked for 1 h by 200 μl per well of 2% human serum slbumin in PBS (1 h at 37° C.), and the wells were washed 4 times in 2.5% NaCl, 0.1% Tween 20 (Merck, Darmstadt, Germany). This washing procedure was done after each of the following incubating steps:
1) 100 μl culture supernatants made to 50% (v/v) in incubation buffer (4% (v/v) normal rabbit serum, DAKO code X902), 1% polyethylene glycol (MW 6,000), 2.5% NaCl, 0.1% Tween 20 in phosphate buffered saline (PBS) were incubated 2 hrs at 37° C., dilutions of native as well as recombinant cytokine standards in the same incubation buffer were asssayed in parallel with the tested supernatants,
2) 100 μl per well of biotinilated rabbit antibodies to recombinant TNF-α, IL-1α or IL-6 (1.5 μg/ml in 0.5% human serum albumin, 0.1% Tween 20 in PBS) were added at 37° for 2 hrs,
3) […] per well of a 1:1000 dilution of streptavidin-peroxidase (Amersham, UK), at room temperature for 30 min.
Enzyme activities were quantitated after addition of 100 μl per well of 0.67 mg/ml 1,2-phenyldiamine hydrochloride (DAKO) dissolved in 100 mM citric acid-phosphate buffer, pH 5.0 containing 0.015% (v/v) H2O2. The reactions were stopped by adding 50 μl per well of 2.5 M H2SO4, and the optical densities are measured in an ELISA scanner at 490 nm against a test reference at 620 nm.
Assay: The compounds were prepared as stock solution at a concentration of 1 mg/ml in medium containing 10% DMSO. The dilutions were made in medium. The cells were stimulated with either SPAG (a malaria antigen TNF-inducer) or bacterial LPS. The supernatant of cell cultures were assayed for TNF-α using a commercial ELISA kit.

[1] = Experiment 1, LPS, 12.5 μg/ml, Control 1.17
[2] = Experiment 1, LPS, 25 μg/ml, Control 1.17
[3] = Experiment 1, LPS, 50 μg/ml, Control 1.17
[4] = Experiment 1, LPS, 100 μg/ml, Control 1.17
[5] = Experiment 1, SPAG, 12.5 μg/ml, Control 3.73
[6] = Experiment 1, SPAG, 25 μg/ml, Control 3.73
[7] = Experiment 1, SPAG, 50 μg/ml, Control 3.73
[8] = Experiment 1, SPAG, 100 μg/ml, Control 3.73

melting point: 214 to 214.7 °C
SMILES: CN(C)c1ccc(/C=C/C(=O)c2ccc([N+](=O)[O-])cc2)cc1 [4′-NO2-4-N(CH3)2, 4-dimethylamino-4′-nitrochalcone]

IC50 (Leishmania promastigotes; Leishmania): 21 ± 2 µM | IC50 (Plasmodium falciparum; Plasmodium falciparum): 22 µM
SMILES: COc1ccc(C(=O)/C=C/c2ccc(N(C)C)cc2)c(OC)c1OC [4-N(CH3)2-2′,3′,4′-OCH3, 4-dimethylamino-2′,3′,4′-trimethoxychalcone]
IC50 (human lymphocytes; Lymphocyte): 35 ± 2 µM

SMILES: CCCCOc1ccccc1C(=O)/C=C/c1ccc(OC)cc1OC [PH142, 2′-butoxy-2,4-dimethoxychalcone]
MIC (Helicobacter pylori): 128 µg/mL (≈ 376 µM) | No. strains inhibited/No. strains tested (Helicobacter pylori): 2/20 | TNF-α production (OD values) (TNF-α; [1]): 0.26 OD | TNF-α production (OD values) (TNF-α; [2]): 0.24 OD | TNF-α production (OD values) (TNF-α; [3]): 0.18 OD | TNF-α production (OD values) (TNF-α; [4]): 0.10 OD | TNF-α production (OD values) (TNF-α; [5]): 0.02 OD | TNF-α production (OD values) (TNF-α; [6]): 0.02 OD | TNF-α production (OD values) (TNF-α; [7]): 0.02 OD | TNF-α production (OD values) (TNF-α; [8]): 0.02 OD | TNF-α production (OD values) (TNF-α; Experiment 2, LPS, 1.562 μg/ml, Control 2.06): 1.58 OD | TNF-α production (OD values) (TNF-α; Experiment 2, LPS, 3.125 μg/ml, Control 2.06): 1.00 OD | TNF-α production (OD values) (TNF-α; Experiment 2, LPS, 6.25 μg/ml, Control 2.06): 0.65 OD | TNF-α production (OD values) (TNF-α; Experiment 2, LPS, 12.5 μg/ml, Control 2.06): 0.16 OD | TNF-α production (OD values) (TNF-α; Experiment 2, SPAG, 1.562 μg/ml, Control 2.28): 1.86 OD | TNF-α production (OD values) (TNF-α; Experiment 2, SPAG, 3.125 μg/ml, Control 2.28): 0.55 OD | TNF-α production (OD values) (TNF-α; Experiment 2, SPAG, 6.25 μg/ml, Control 2.28): 0.04 OD | TNF-α production (OD values) (TNF-α; Experiment 2, SPAG, 12.5 μg/ml, Control 2.28): 0.02 OD

SMILES: CCCCOc1ccc(C(=O)/C=C/c2cc(OC)cc(OC)c2)cc1 [3,5-OCH3-4′-OC4H9]
IC50 (Leishmania promastigotes): 35 ± 3 µM | IC50 (human lymphocytes): 52 ± 3 µM | IC50 (Plasmodium falciparum): 17 µM

IC50 (Leishmania promastigotes; Leishmania): 89 ± 9 µM | IC50 (Plasmodium falciparum; Plasmodium falciparum): 25 µM
SMILES: COc1cccc(/C=C/C(=O)c2ccc(O)cc2)c1OC [2,3-OCH3-4′-OH, 2,3-dimethoxy-4′-hydroxychalcone]
IC50 (human lymphocytes; Lymphocyte): 70 ± 4 µM

SMILES: COc1ccc(/C=C/C(=O)c2ccc(OC)cc2)cc1 [4′,4-OCH3]
IC50 (Leishmania promastigotes): 106 ± 9 µM | IC50 (human lymphocytes): 112 ± 8 µM | IC50 (Plasmodium falciparum): 51 µM

SMILES: CCCCOc1cccc(C(=O)/C=C/c2ccc(OC)cc2OC)c1 [PH81, 3′-butoxy-2,4-dimethoxychalcone]
MIC (Helicobacter pylori): 16 µg/mL (≈ 47 µM) | No. strains inhibited/No. strains tested (Helicobacter pylori): 5/20 | IC50 (Leishmania promastigotes; Leishmania): 20 ± 3 µM | IC50 (human lymphocytes; Lymphocyte): 65 ± 4 µM | IC50 (Plasmodium falciparum; Plasmodium falciparum): 16 µM

SMILES: COc1ccc(/C=C/C(=O)c2ccc(F)cc2F)c(OC)c1 [2′,4′-F-2,4-OCH3]
IC50 (Leishmania promastigotes): 26 ± 2 µM | IC50 (human lymphocytes): 74 ± 4 µM | IC50 (Plasmodium falciparum): 49 µM

MIC (Helicobacter pylori): > 128 µg/mL | IC50 (Plasmodium falciparum; Plasmodium falciparum): 17 µM
SMILES: COc1cc(/C=C/C(=O)c2ccc(N(C)C)cc2)cc(OC)c1 [PH32, 4′-dimethylamino-3,5-dimethoxychalcone]
No. strains inhibited/No. strains tested (Helicobacter pylori): 0/20 | inhibitory effect on TNF-α production (TNF-α): no or very little inhibitory effect | TNF-α production (OD values) (TNF-α; [1]): 1.23 OD | TNF-α production (OD values) (TNF-α; [2]): 1.55 OD | TNF-α production (OD values) (TNF-α; [3]): 1.28 OD | TNF-α production (OD values) (TNF-α; [4]): 0.94 OD | TNF-α production (OD values) (TNF-α; [5]): 3.90 OD | TNF-α production (OD values) (TNF-α; [6]): 2.26 OD | TNF-α production (OD values) (TNF-α; [7]): 1.74 OD | TNF-α production (OD values) (TNF-α; [8]): 0.75 OD

SMILES: COc1ccc(C(=O)/C=C/c2ccc(F)c(F)c2)c(OC)c1 [2′,4′-OCH3-3,4-F]
IC50 (Leishmania promastigotes): 16 ± 1 µM | IC50 (human lymphocytes): 5.3 ± 0.6 µM | IC50 (Plasmodium falciparum): 10 µM
